In patent US12077503B2, “Substituted cyclic amides and their use as herbicides” (FMC CORPORATION, priority 2015, dated 2024):

Assays:
Type in all cases: in vivo
corn (Zea mays) [1] = experiment: Test G Post-Emergence Protocol; settings: Zea mays, post-emergence, 312 h
Summary of the method: (§1)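 A glasshouse post-emergence test: 8-day-old plants sprayed at 15.625, 62.5 or 250 g/ha, then grown at 24/16 °C day/night with 14 h light and 65% humidity. Damage rated 13 days later, 0–100.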

[2] = system: barnyardgrass (Echinochloa crus-galli); experiment: Test G Post-Emergence Protocol; settings: Echinochloa crus-galli, post-emergence, 312 h
Summary of the method: as §1

[3] = system: ivy-leaved morning glory (Ipomoea hederacea); experiment: Test G Post-Emergence Protocol; settings: Ipomoea, post-emergence, 312 h
Summary of the method: as §1

[4] = system: velvetleaf (Abutilon theophrasti); experiment: Test G Post-Emergence Protocol; settings: Abutilon theophrasti, post-emergence, 312 h
Summary of the method: as §1

[5] = system: giant foxtail (Setaria faberi); experiment: Test G Post-Emergence Protocol; settings: Setaria faberi, post-emergence, 312 h
Summary of the method: as §1

[6] = system: redroot pigweed (Amaranthus retroflexus); experiment: Test G Post-Emergence Protocol; settings: Amaranthus retroflexus, post-emergence, 312 h
Summary of the method: as §1

corn (Zea mays) [7] = experiment: Test G Pre-Emergence Protocol; settings: Zea mays, pre-emergence, 312 h, evaluated after 13 days
Summary of the method: (§2)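 Glasshouse pre-emergence test: soil-sown seeds, sprayed after 1 d at 15.625, 62.5 or 250 g/ha. Conditions 24/16° C day/night, 14 h light, 65% humidity, watering twice daily. Rating 13 d post-spray (100 = total damage).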

[8] = system: barnyardgrass (Echinochloa crus-galli); experiment: Test G Pre-Emergence Protocol; settings: Echinochloa crus-galli, pre-emergence, 312 h, evaluated after 13 days
Summary of the method: as §2

[9] = system: ivy-leaved morning glory (Ipomoea hederacea); experiment: Test G Pre-Emergence Protocol; settings: Ipomoea, pre-emergence, 312 h, evaluated after 13 days
Summary of the method: as §2

[10] = system: velvetleaf (Abutilon theophrasti); experiment: Test G Pre-Emergence Protocol; settings: Abutilon theophrasti, pre-emergence, 312 h, evaluated after 13 days
Summary of the method: as §2

[11] = system: giant foxtail (Setaria faberi); experiment: Test G Pre-Emergence Protocol; settings: Setaria faberi, pre-emergence, 312 h, evaluated after 13 days
Summary of the method: as §2

[12] = system: redroot pigweed (Amaranthus retroflexus); experiment: Test G Pre-Emergence Protocol; settings: Amaranthus retroflexus, pre-emergence, 312 h, evaluated after 13 days
Summary of the method: as §2

CN1C[C@@H](c2ccc(C(F)(F)F)nc2)[C@H](C(=O)Nc2cccc(F)n2)C1=O (racemic) [Compound 1491]
plant injury at 15.625 g/ha (corn (Zea mays) [1]; 15.625 g ai/ha, evaluated after 13 days (100=total damage to plant; 0=no damage to plant), read-out: Corn damage rating): 0%
plant injury at 62.5 g/ha (corn (Zea mays) [1]; 62.5 g ai/ha, evaluated after 13 days, read-out: Corn damage rating (100=total damage to plant; 0=no damage to plant)): 0%
plant injury at 250 g/ha (corn (Zea mays) [1]; 250 g ai/ha, evaluated after 13 days, read-out: damage to plant, Corn (100=total damage to plant; 0=no damage to plant)): 0%
pest or weed control at 15.625 g/ha ([2]; 15.625 g ai/ha, evaluated after 13 days (100=total damage to plant; 0=no damage to plant), read-out: Barnyardgrass damage rating): 0%
pest or weed control at 62.5 g/ha ([2]; 62.5 g ai/ha, evaluated after 13 days, read-out: Barnyardgrass damage rating (100=total damage to plant; 0=no damage to plant)): 20%
pest or weed control at 250 g/ha ([2]; 250 g ai/ha, evaluated after 13 days, read-out: damage to plant, Barnyardgrass (100=total damage to plant; 0=no damage to plant)): 60%
pest or weed control at 15.625 g/ha ([3]; 15.625 g ai/ha, evaluated after 13 days (100=total damage to plant; 0=no damage to plant), read-out: Morningglory, Ivy-leaved damage rating): 0%
pest or weed control at 62.5 g/ha ([3]; 62.5 g ai/ha, evaluated after 13 days, read-out: Morningglory, Ivy-leaved damage rating (100=total damage to plant; 0=no damage to plant)): 0%
pest or weed control at 250 g/ha ([3]; 250 g ai/ha, evaluated after 13 days, read-out: damage to plant, Morningglory, Ivy-leaved (100=total damage to plant; 0=no damage to plant)): 10%
pest or weed control at 15.625 g/ha ([4]; 15.625 g ai/ha, evaluated after 13 days (100=total damage to plant; 0=no damage to plant), read-out: Velvetleaf damage rating): 0%
pest or weed control at 62.5 g/ha ([4]; 62.5 g ai/ha, evaluated after 13 days, read-out: Velvetleaf damage rating (100=total damage to plant; 0=no damage to plant)): 0%
pest or weed control at 250 g/ha ([4]; 250 g ai/ha, evaluated after 13 days, read-out: damage to plant, Velvetleaf (100=total damage to plant; 0=no damage to plant)): 0%
pest or weed control at 15.625 g/ha ([5]; 15.625 g ai/ha, evaluated after 13 days (100=total damage to plant; 0=no damage to plant), read-out: Foxtail, Giant damage rating): 0%
pest or weed control at 62.5 g/ha ([5]; 62.5 g ai/ha, evaluated after 13 days, read-out: Foxtail, Giant damage rating (100=total damage to plant; 0=no damage to plant)): 20%
pest or weed control at 250 g/ha ([5]; 250 g ai/ha, evaluated after 13 days, read-out: damage to plant, Foxtail, Giant (100=total damage to plant; 0=no damage to plant)): 60%
pest or weed control at 15.625 g/ha ([6]; 15.625 g ai/ha, evaluated after 13 days (100=total damage to plant; 0=no damage to plant), read-out: Pigweed, Redroot damage rating): 0%
pest or weed control at 62.5 g/ha ([6]; 62.5 g ai/ha, evaluated after 13 days, read-out: Pigweed, Redroot damage rating (100=total damage to plant; 0=no damage to plant)): 0%
pest or weed control at 250 g/ha ([6]; 250 g ai/ha, evaluated after 13 days, read-out: damage to plant, Pigweed, Redroot (100=total damage to plant; 0=no damage to plant)): 0%
plant injury at 15.625 g/ha (corn (Zea mays) [7]; 15.625 g ai/ha, read-out: Corn damage rating (100=total damage to plant; 0=no damage to plant)): 0%
plant injury at 62.5 g/ha (corn (Zea mays) [7]; 62.5 g ai/ha, 100=total damage to plant, 0=no damage to plant, read-out: plant damage rating, Corn): 0%
plant injury at 250 g/ha (corn (Zea mays) [7]; 250 g ai/ha, read-out: Corn damage rating (100=total damage to plant; 0=no damage to plant)): 0%
pest or weed control at 15.625 g/ha ([8]; 15.625 g ai/ha, read-out: Barnyard grass damage rating (100=total damage to plant; 0=no damage to plant)): 0%
pest or weed control at 62.5 g/ha ([8]; 62.5 g ai/ha, 100=total damage to plant, 0=no damage to plant, read-out: plant damage rating, Barnyardgrass): 20%
pest or weed control at 250 g/ha ([8]; 250 g ai/ha, read-out: Barnyardgrass damage rating (100=total damage to plant; 0=no damage to plant)): 90%
pest or weed control at 15.625 g/ha ([9]; 15.625 g ai/ha, read-out: Morning-glory, Ivy-leaved damage rating (100=total damage to plant; 0=no damage to plant)): 0%
pest or weed control at 62.5 g/ha ([9]; 62.5 g ai/ha, 100=total damage to plant, 0=no damage to plant, read-out: plant damage rating, Morningglory, Ivy-leaved): 0%
pest or weed control at 250 g/ha ([9]; 250 g ai/ha, read-out: Morningglory, Ivy-leaved damage rating (100=total damage to plant; 0=no damage to plant)): 0%
pest or weed control at 15.625 g/ha ([10]; 15.625 g ai/ha, read-out: Velvetleaf damage rating (100=total damage to plant; 0=no damage to plant)): 0%
pest or weed control at 62.5 g/ha ([10]; 62.5 g ai/ha, 100=total damage to plant, 0=no damage to plant, read-out: plant damage rating, Velvetleaf): 0%
pest or weed control at 250 g/ha ([10]; 250 g ai/ha, read-out: Velvetleaf damage rating (100=total damage to plant; 0=no damage to plant)): 0%
pest or weed control at 15.625 g/ha ([11]; 15.625 g ai/ha, read-out: Foxtail, Giant damage rating (100=total damage to plant; 0=no damage to plant)): 0%
pest or weed control at 62.5 g/ha ([11]; 62.5 g ai/ha, 100=total damage to plant, 0=no damage to plant, read-out: plant damage rating, Foxtail, Giant): 50%
pest or weed control at 250 g/ha ([11]; 250 g ai/ha, read-out: Foxtail, Giant damage rating (100=total damage to plant; 0=no damage to plant)): 80%
pest or weed control at 15.625 g/ha ([12]; 15.625 g ai/ha, read-out: Pigweed, Redroot damage rating (100=total damage to plant; 0=no damage to plant)): 0%
pest or weed control at 62.5 g/ha ([12]; 62.5 g ai/ha, 100=total damage to plant, 0=no damage to plant, read-out: plant damage rating, Pigweed, Redroot): 0%
pest or weed control at 250 g/ha ([12]; 250 g ai/ha, read-out: Pigweed, Redroot damage rating (100=total damage to plant; 0=no damage to plant)): 0%
